Test results from publication PMC12007285 (Microbial Cell Factories, 2025).

What was measured:
[1] = tested on: RsNpcB (reductase component of two-component p-nitrophenol monooxygenase RsNcpAB); assay: NADH/NADPH oxidation at […] nm; assay type: biochemical, Rhodococcus sp. 21391; conditions: 50 mM Tris–HCl pH 7.5, 25 °C
[2] = target: p-nitrophenol monooxygenase oxidizing component RsNpcA (Rhodococcus sp. 21391) (UniProt Q6F4M8); assay: SEC

Question: For `Cc1cc2nc3c(=O)[nH]c(=O)nc-3n(C[C@H](O)[C@H](O)[C@H](O)COP(=O)(O)OP(=O)(O)OC[C@H]3O[C@@H](n4cnc5c(N)ncnc54)[C@H](O)[C@@H]3O)c2cc1C` [FAD], which Km ([1]; 200 μM NADH, FAD varied 0.2–1.0 μM) is on record?
Answer: The Km was 0.11 ± 0.02 µM.

Question: With `Cc1cc2nc3c(=O)[nH]c(=O)nc-3n(C[C@H](O)[C@H](O)[C@H](O)COP(=O)(O)O)c2cc1C` [FMN] as the compound, how does the Km ([1]; 200 μM NADH, FMN varied 0.2–1.0 μM) read?
Answer: The Km was 0.02 ± 0.007 µM.

Question: `NC(=O)C1=CN([C@@H]2O[C@H](COP(=O)(O)OP(=O)(O)OC[C@H]3O[C@@H](n4cnc5c(N)ncnc54)[C@H](O)[C@@H]3O)[C@@H](O)[C@H]2O)C=CC1` [NADH] was tested. Which Km ([1]; 20 μM FAD, NADH varied 20–220 μM) did it give?
Answer: Its Km is 45.5 ± 10.8 µM.

Question: With `NC(=O)C1=CN([C@@H]2O[C@H](COP(=O)(O)OP(=O)(O)OC[C@H]3O[C@@H](n4cnc5c(N)ncnc54)[C@H](OP(=O)(O)O)[C@@H]3O)[C@@H](O)[C@H]2O)C=CC1` [NADPH] as the compound, how does the Km ([1]; 20 μM FAD, NADPH varied 20–220 μM) read?
Answer: The Km was 16.4 ± 4.62 µM.

Question: “p-nitrophenol monooxygenase oxidizing component RsNpcA (from UniProt Q6F4M8 1-528) (enzyme)” was tested. Which stoichiometry N [2] did it give?
Answer: The stoichiometry N was 4.
